Four molecules from US20180214467A1, “GLP-1 SECRETAGOGUE” (EDUCATIONAL FOUNDATION JICHI MEDICAL UNIVERSITY, priority 2015, published 2018) can be followed below.

The test system of assay [1] is C57BL/6J male mice. Put plainly: Portal vein active GLP-1 and total GIP 30 minutes after oral administration of monosaccharides to fasting mice (Example 2). In kind it is in vivo. The note with it: 30 minutes after administration, vs saline. How it is done: To the C57BL/6J male mice (9-11 weeks old) having fasted for 16 hours from 18:00 on the day before the experiment, D-psicose at 0.3 g/kg or 1 g/kg, D-tagatose or D-glucose each at 1 g/kg, or saline was orally administered into each stomach at 10:00 AM. The dose of the oral administration was 10 ml/kg. The blood was collected from the portal vein under isoflurane anesthesia 30 minutes after the administration. Note that an anticoagulant (heparin (final concentration: 50 IU/ml)) and peptide degradation suppressors (aprotinin (final concentration: 500 KIU/ml) and vildagliptin (final concentration: 10 μM)) had been added into the sampling syringes in advance. The collected blood was cooled and centrifuged. The blood plasma was stored at −80° C. until the analysis. The quantitative analyses of active GLP-1 and total GIP were conducted using the above-described kits. In addition, as the statistical analyses, a one-way analysis of variance (unpaired) was performed, followed by Dunnett's test using saline as the control. […] Note that, in FIG. 3, * indicates p<0.05, and ** indicates p<0.01. Moreover, numerical values in bar graphs in the figure each indicate the number of experiments.

Assay [2] concerns healthy subjects. The assay is described as follows: Total GLP-1 blood concentration AUC after single ingestion by healthy subjects (Example 6). In kind it is in vivo. The note with it: humans, fasting. The method, then:
After setting a termination period for one week or more in advance, 200 ml of water (control beverage) or D-psicose at 5 g/200 ml (D-psicose: 0.07 to 0.11 g/kg body weight), 10 g/200 ml (D-psicose: 0.14 to 0.22 g/kg body weight), or 15 g/200 ml (test beverage) (D-psicose: 0.21 to 0.33 g/kg body weight) each at a single dose was randomly ingested by six healthy subjects (three men and three women. The body weights: 53.3±7.4 kg). In the night before the day when the control beverage or the test beverage was ingested (test day), a designated dinner was ingested. After 21:00 in the night until 9:00 AM on the test day, the ingestion of foods and beverages excluding water and tea beverages was prohibited. As the designated diet, any menu (curry, chicken and egg bowl, beef bowl, Chinese rice bowl) was selectable which hardly contain substances such as dietary fibers, lactic acid bacteria, and fermentative saccharides utilizable by intestinal bacteria for the fermentations. […] The total GLP-1 amount in the centrifuged blood plasma was measured using the product manufactured by Merck KGaA: “Multi Species GLP-1 Total ELISA.” Note that the subjects were made to keep regular lifestyles and avoid excessive exercising, eating, and drinking during the test period of approximately one month, and spend a time quietly in house during the test.

For assay [3], the system named is Sprague Dawley rat. The assay is described as follows: Blood glucose and total GLP-1 over time after oral administration to fasted rats (Example 5). In kind it is in vivo. The note with it: 2 g/kg body weight oral, fasted SD rats, 0 to 240 minutes. The method, then:
Before a sample was administered (0 minutes), the blood was collected from the tail vein of each Sprague Dawley rat (8 to 9 weeks old male) having fasted overnight. Using a feeding tube, each solution of deionized water (control group), D-psicose, an indigestible dextrin (DE10), and a dextrin (the product manufactured by Matsutani Chemical Industry Co., Ltd.: “Pinedex #2” (DE10)) was orally administered at 2 g/kg body weight (10 mL/kg body weight). Then, the blood was collected from the tail vein after 15 minutes, 30 minutes, 60 minutes, 90 minutes, 120 minutes, 150 minutes, 180 minutes, 210 minutes, and 240 minutes.
The blood was collected into a tube to which a DPP-IV inhibitor (manufactured by Millipore Corporation), aprotinin (manufactured by Wako Pure Chemical Industries, Ltd.), and heparin (manufactured by Nacalai Tesque, Inc.) had been added in advance. The blood plasma was collected by centrifugation, and cryopreserved at −80° C. The total GLP-1 concentration in the resulting blood plasma was measured with a commercially available ELISA kit (Multi Species GLP-1 Total ELISA manufactured by Millipore Corporation). The glucose concentration in the blood plasma was measured with Glucose CII-Test Wako (manufactured by Wako Pure Chemical Industries, Ltd.).

The subject of assay [4] is murine large intestine-derived, Glucagon-like peptide-1 (GLP-1) producing cell line GLUTag. Put plainly: GLP-1 secretion test in GLUTag cells (preliminary test). In kind it is cell-based. The settings on record: 10 mM, 20 mM and 40 mM solutions, 60 minutes. The method, then:
A murine large intestine-derived, Glucagon-like peptide-1 (GLP-1) producing cell line GLUTag was cultured in 10%-FBS containing Dulbecco's modified Eagle's medium at 37° C. in the presence of 5% CO2. The GLUTag cells were cultured in a 48-well plate for 2 or 3 days until subconfluence. Before each sample (D-psicose or an indigestible dextrin) was added, the wells were washed with a Hepes buffer (140 mM NaCl, 4.5 mM KCl, 20 mM Hepes, 1.2 mM CaCl2, 1.2 mM MgCl2, 10 mM D-glucose, 0.1% BSA, pH: 7.4). Then, 80 μl of a solution of the sample dissolved in the same buffer was added to the wells, and incubated at 37° C. for 60 minutes. After the supernatant was collected, the cells were precipitated by centrifugation (800×g, 5 minutes, 4° C.), and 70 μl of the supernatant was cryopreserved. The total GLP-1 in this supernatant was measured with commercially available “Enzyme immuno assay kit” (manufactured by Yanaihara Institute Inc.).

Assay [5] relates to C57BL/6J male mice. Put plainly: Portal vein active GLP-1, total GLP-1 and total GIP over time after oral administration to fasting mice (Example 1). In kind it is in vivo. The note with it: 1 g/kg oral. How it is done:
As the experimental animal, C57BL/6J male mice (9-11 weeks old) were used. To the mice having fasted for 16 hours from 18:00 on the day before the experiment, D-psicose at 1 g/kg was orally administered into each stomach at 10:00 AM. The dose of the oral administration was 10 ml/kg. Before the D-psicose administration and 30 minutes and 60 minutes after the administration, the blood was collected from the portal vein under isoflurane anesthesia. Note that an anticoagulant (heparin (final concentration: 50 IU/ml)) and peptide degradation suppressors (aprotinin (final concentration: 500 KIU/ml) and vildagliptin (final concentration: 10 μM)) had been added into the sampling syringes in advance. The collected blood was cooled, centrifuged, and stored at −80° C. until the resulting blood plasma was analyzed. The quantitative analyses of active GLP-1, total GLP-1, and total GIP were conducted using ELISA kits (manufactured by Millipore Corporation. EGLP-35K, EZGLPIT-36K, and EZRMGIP-55K, respectively). In addition, as the statistical analyses, a one-way analysis of variance (paired) was performed, followed by Dunnett's test using a value before the D-psicose administration (0 min) as the control. […] Note that, in FIG. 2, * indicates p<0.05, and ** indicates p<0.01. Moreover, numerical values in bar graphs in FIG. 2 each indicate the number of experiments.

The test system of assay [6] is C57BL/6J male mice. The assay is described as follows: Amount of diet ingested after oral D-psicose with or without GLP-1 receptor inhibitor Ex-9 (Example 3). The settings on record: vs control group. In kind it is in vivo. How it is done:
The C57BL/6J male mice (9-11 weeks old) were preliminarily grown in separate cages for one week or more, and habituated to the growth and experimental environment through training by the experimenter. After the fasting for 16 hours from 18:00 on the day before the experiment, saline or a GLP-1 receptor inhibitor (Exendin-9, Ex-9, 200 nmol/kg) was intraperitoneally administered from 9:45. Immediately thereafter, saline or D-psicose at 1 g/kg was orally administered into each stomach. The doses of the intraperitoneal administration and the oral administration were respectively 5 ml/kg and 10 ml/kg. From 10:00, the mice were fed with Diet CE-2 (common mouse diet with well-balanced nutrients, manufactured by CLEA Japan, Inc.) ad lib. After 0.5 hours, 1 hour, 2 hours, 3 hours, and 6 hours, the amounts of the diet ingested were measured over time. Each amount of the diet ingested was calculated as the amount of energy ingested (kcal), given that 1 g of D-psicose orally administered into the stomach is 0 kcal, and 1 g of Diet CE-2 is 3.45 kcal. As the statistical analyses, a one-way analysis of variance (unpaired) was performed on the results at the respective time points, and multiple comparisons were performed by Tukey's test among all the groups. […] Note that, in FIG. 4, * indicates p<0.05, and ** indicates p<0.01.

Assay [7] has as its system C57BL/6J male mice. Put plainly: Amount of diet ingested after oral D-psicose or D-tagatose (Example 4). In kind it is in vivo. The settings on record: 1 g/kg oral, vs control group (saline). How it is done: The C57BL/6J male mice (7-11 weeks old) were preliminarily grown in separate cages for one week or more, and habituated to the growth and experimental environment through training by the experimenter. After the fasting for 16 hours from 18:00 on the day before the experiment, saline, D-psicose at 1 g/kg, or D-tagatose at 1 g/kg was orally administered into each stomach from 9:50. The doses were each 10 ml/kg. From 10:00, the mice were fed with Diet CE-2 ad lib. After 1 hour, 2 hours, and 6 hours, the amounts of the diet ingested were measured over time. Each amount of the diet ingested was calculated as the amount of energy ingested (kcal), given that 1 g of D-tagatose orally administered into the stomach is 2 kcal, and 1 g of Diet CE-2 is 3.45 kcal. As the statistical analyses, a one-way analysis of variance (unpaired) was performed on the results at the respective time points, and multiple comparisons were performed by Tukey's test among all the groups. […] Note that, in FIG. 5, * indicates p<0.05, and ** indicates p<0.01.

The mark [8] stands for this setting: 30 to 60 minutes after administration vs 0 min.

For `O=C[C@H](O)[C@@H](O)[C@H](O)[C@H](O)CO` [D-glucose, reference compound], in assay [1] (1 g/kg oral), the “active GLP-1 concentration in the portal veins” value (from here on “active GLP-1 concentration”) is listed as “did not change at all” and the “total GIP in the portal veins” value is recorded as “significantly increased the GIP concentration”.

Turning to `O=C(CO)[C@H](O)[C@H](O)[C@H](O)CO` [D-psicose], the “area under total GLP-1 blood concentration-time curve (AUC)” value in assay [2] (single dose 5 g, 10 g or 15 g/200 ml, 15 to 180 minutes) is reported as “increased in a manner dependent on the amount of D-psicose ingested”. For the same molecule, in assay [2] (single oral ingestion), the “single dose at which the effect of promoting the amount of total GLP-1 secreted into the blood was obtained” value is on record as “at least 0.07 g/kg body weight”. For the same molecule, the blood sugar level result in assay [3] is listed as “small variation”. In assay [3], the “total GLP-1 concentration in the blood” value is on record as “greatly increased”. Besides, the “GLP-1 secretion (total GLP-1 in supernatant)” value in assay [4] is listed as “merely tended to exhibit slight secretion promotion”. Further, the “active GLP-1 concentration” value in assay [5] (setting [8]) was “increased”; in assay [1] (0.3 g/kg oral), “tended to increase”; in assay [1] (1 g/kg oral), “significantly increased”. The “total GLP-1 concentration in the portal veins” value in assay [5] (setting [8]) is given as “increased”. Also, the “GIP secretion (total GIP concentration in the portal veins)” value in assay [5] (for 60 minutes after administration) is “did not influence the GIP secretion”. Further, the “total GIP in the portal veins” value in assay [1] (0.3 g/kg oral) and in assay [1] (1 g/kg oral) was “only the D-glucose administration group significantly increased the GIP concentration” throughout. Moreover, the “amount of the diet ingested” value in assay [6] (Ex-9 200 nmol/kg i.p. + D-psicose 1 g/kg oral, 30 minutes after administration) is recorded as “significantly smaller”; in assay [6] (Ex-9 200 nmol/kg i.p. + D-psicose 1 g/kg oral, after 1 hour (to 6 hours) from administration) it was “not significantly different”; in assay [6] (saline i.p. + D-psicose 1 g/kg oral, 30 minutes to 6 hours after administration) it was “significantly decreased”; in assay [7] (1 hour to 6 hours after administration), “significantly smaller”.

On to `O=C(CO)[C@@H](O)[C@@H](O)[C@H](O)CO` [D-tagatose, reference compound], for which, in assay [1] (1 g/kg oral), the “active GLP-1 concentration” value is reported as “tended to increase” and the “total GIP in the portal veins” value was “only the D-glucose administration group significantly increased the GIP concentration”. For the same molecule, the “amount of the diet ingested” value in assay [7] (1 hour after administration) is reported as “significantly smaller”. The “amount of the diet ingested” value in assay [7] (2 hours and 6 hours after administration) is recorded as “almost the same”.

Turning to Exendin-9 [Ex9, reference compound], the “amount of the diet ingested” value in assay [6] (Ex-9 200 nmol/kg i.p. + saline oral, all time zones) is “at the same levels”.
